Among the data in patent publication EP0729465B1, “PYRONE DERIVATIVES AS PROTEASE INHIBITORS AND ANTIVIRAL AGENTS” (PARKE, DAVIS & COMPANY, priority 1993, dated 1995) are IC50 and EC50 values, retold here.

The target of one test is T1, HIV-I Protease (Human immunodeficiency virus type 1 group M subtype B, UniProt P04585).
T1 construct: HIV-I Protease: The enzyme is obtained from Bachem Bioscience Inc; purchased Bachem Bioscience Inc
Put plainly: HIV protease inhibition (hydrolysis of undecapeptide substrate, HPLC readout). The format is biochemical. The following applies: read-out: 50% Inhibition Concentration (Averaged). How it is done:
• DTT Buffer: 1.0 mM dithiothreitol (DTT) was prepared fresh daily in 0.1% polyethylene glycol (mw 8000) 80 mM NaOAc, 160 mM NaCl, 1.0 mM EDTA, and brought to pH 4.7 with HCl. • HIV-I Protease: The enzyme is obtained from Bachem Bioscience Inc. The undiluted enzyme is thawed from -80 °C and diluted 50-fold with DTT buffer. The solution is always kept at 0 °C on ice water and used in the experiment within 20 minutes after thawing. • Enzyme Substrate: Substrate III from Bachem Bioscience Inc. is the undecapeptide H-His-Lys-Ala-Arg-Val-Leu-p-Nitrophenylalanine-Glu-Ala-Norleucine-ser-NH2 (> 97 % purity). A 200. µM stock solution in DTT buffer is prepared and stored on ice. Substrate solution is prepared fresh daily. • Test Compound: 10 mM inhibitor (I) in dimethyl sulfoxide (DMSO) is diluted to 200 µM with DTT buffer. From the 200 µM stock solution is made a 10 µM stock solution with 2% DMSO in DTT buffer. The two inhibitor solutions are used to make final [I] = 100, 50, 20, 10, 5, 2, 1, 0.5 and 0 µM with 2% DMSO in DTT buffer in each reaction well (total inhibitor volume of 50 µl).
To each reaction well is added 20 µl of substrate (final concentration of 40 µM), 50 µl of inhibitor (at a concentration such that final dilution will produce the test concentration) and 20 µl of DTT buffer. The reaction plate (96 wells) is incubated at 37 °C for at least 5 minutes.
10 µl of the diluted protease is added to the reaction well while the reaction plate is shaking. Once shaken for 10 seconds, the plate is returned to the heating block at 37 °C. (Final reaction volume = 100 µl.)
The reaction is incubated for 5 minutes at 37 °C. The reaction is stopped by placing the reaction plate on the shaker and adding 20 µl of 10% trifluoroacetic acid (TFA) and shaking for 10 seconds. The amount of proteolysis is then determined by separation of noncleaved substrate and two cleaved products with reverse-phase HPLC, while measuring absorbance at 220 nm to determine the relative peak areas of the three components. The relative peak areas are used to calculate % conversion to product as a function of inhibitor concentration. The data is plotted as % Control (the ratio of % conversion in the presence and absence of inhibitor x 100) versus inhibitor concentration and fit with the equation Y= 100/1+(X/IC50)^A, where IC50 is the inhibitor concentration at 50% inhibition and A is the slope of the inhibition curve.

The next test deals with HIV-1iiib. Put plainly: Anti-HIV-1 activity, acute infection of H9 cells. In kind it is cell-based. The following applies: Human immunodeficiency virus 1; H9 cell line infected with HIV-1iiib; reverse transcriptase assay at 4 and 7 days post infection; read-out: Concentration for 50% Protection. The protocol: Using the general methods of Pauwels et al., (J. Virol. Methods, 16, 171-185, 1987) and Mann et al. (AIDS Research and Human Retroviruses, 253-255, 1989) anti-viral assays of acute HIV-1 infection were performed in the H9 cell line. Cultures were batch infected in 1 ml of RPM1 1640 media/10% fetal calf serum containing 10^7 cells and 10^5 infectious doses of HIV-1iiib for an effective multiplicity of infection of 0.01. After 2 hours of viral absorption, cells were washed once and plated in 96-well microtiter plates at a density of 10^4 cells per well. Test compounds were added to produce the desired concentration of drug and 0.2% DMSO in a final volume of 200 µl. Uninfected parallel cultures were maintained for XTT cytotoxicity assay at 7 days post infection. Cultures were tested for viral replication by reverse transcriptase assay at 4 and 7 days post infection.

The mark [1] stands for this setting: 40 µM substrate, pH 4.7, 37 °C, 5 minutes.

Where two headings read alike, the source gives them in different places.

As for `O=c1oc(-c2ccccc2)cc(O)c1SCCOc1ccccc1` [Example 20, 4-Hydroxy-3-[(2-phenoxyethyl)thio]-6-phenyl-2H-pyran-2-one], the IC50 at HIV-I Protease (setting [1]) is 1700 nM.
Consider `O=c1oc(-c2cccc(OCc3ccccc3)c2)cc(O)c1SCCc1ccccc1` [Example 39, 4-Hydroxy-3-[(2-phenylethyl)thio]-6-[3-(phenylmethoxy)phenyl]-2H-pyran-2-one], for which, at HIV-I Protease (setting [1]), the IC50 came to 750 nM.
As to `O=c1oc(-c2ccc(Cl)c(Cl)c2)cc(O)c1SCc1ccccc1` [Example 3, 6-(3,4-Dichlorophenyl)-4-hydroxy-3-[(phenylmethyl)thio]-2H-pyran-2-one], on HIV-I Protease (setting [1]), the IC50 was 1000 nM.
On the same count and under the same terms, the figure for `O=c1oc(-c2ccccc2)cc(O)c1C(Sc1ccccc1)c1ccccc1` (racemic) [Example 31, 4-Hydroxy-6-phenyl-3-[phenyl(phenylthio)methyl]-2H-pyran-2-one] is 800 nM.
Turning to `O=c1oc(-c2ccc(OCc3ccccc3)cc2)cc(O)c1SCCc1ccccc1` [Example 26, 4-Hydroxy-3-[(2-phenylethyl)thio]-6-[4-(phenylmethoxy)phenyl] 2-2H-pyran-2-one], the EC50 in the test on HIV-1iiib came to 17000 nM. Further, on HIV-I Protease (setting [1]), the IC50 was 330 nM.
On to `O=c1oc(-c2ccc(O)cc2)cc(O)c1SCCc1ccccc1` [Example 24, 4-Hydroxy-6-(4-hydroxyphenyl)-3-[(phenylethyl)thio]-2H-pyran-2-one], for which, at HIV-I Protease (setting [1]), the IC50 came to 500 nM.
On the same count and under the same terms, to `Cc1cc(C)cc(-c2cc(O)c(Sc3ccccc3)c(=O)o2)c1` [Example 148, 6-(3,5-Dimethylphenyl)-4-hydroxy-3-(phenylthio)-2H-pyran-2-one] belongs 630 nM.
As for `O=c1oc(-c2ccccc2)cc(O)c1C(CC1CC1)SCc1ccccc1` (racemic) [Example 119, 3-[2-Cyclopropyl-1-[(phenylmethyl)thio]ethyl]-4-hydroxy-6-phenyl-2H-pyran-2-one], on HIV-I Protease (setting [1]), the IC50 is 60 nM.
Regarding `O=c1oc(-c2ccc3c(c2)OCCO3)cc(O)c1SCc1ccccc1` [Example 107, 6-(2,3-Dihydro-1,4-benzodioxin-6-yl)-4-hydroxy-3-[(phenylmethyl)thio]-2H-pyran-2-one], the EC50 in the test with HIV-1iiib stood at 15000 nM. On HIV-I Protease, the IC50 worked out at 480 nM.
Turning to `Cc1cc(-c2cc(O)c(SCc3ccccc3)c(=O)o2)cc(C)c1O` [Example 99, 4-Hydroxy-6-(4-hydroxy-3,5-dimethylphenyl)-3-[(phenylmethyl)thio]-2H-pyran-2-one], at HIV-I Protease (setting [1]), the IC50 stood at 240 nM.
Take `Cc1cc(C)cc(-c2cc(O)c(SCc3ccccc3)c(=O)o2)c1` [Example 56, 6-(3,5-Dimethylphenyl)-4-hydroxy-3-[(phenylmethyl)-thio]-2H-pyran-2-one]: the EC50 in the test with HIV-1iiib stood at 29000 nM. The IC50 on HIV-I Protease (setting [1]) worked out at 130 nM.
In the case of `O=c1oc(-c2cccc(Cl)c2)cc(O)c1SCCc1ccccc1` [Example 6, 6-(3-Chlorophenyl)-4-hydroxy-3-[(2-phenylethyl)thio]-2H-pyran-2-one], the IC50 on HIV-I Protease (setting [1]) is 400 nM.
The same measure, in the same setting: to `O=c1oc(-c2cccc(Cl)c2)cc(O)c1SCc1ccccc1` [Example 1, 6-(3-Chlorophenyl)-4-hydroxy-3-[(phenylmethyl)thio]-2H-pyran-2-one] belongs 470 nM.
For `O=c1oc(-c2cccc(-c3ccccc3)c2)cc(O)c1Sc1ccc2ccccc2c1` [Example 168, 6-(1,1'-Biphenyl-3-yl)-4-hydroxy-3-[(naphthalen-2-yl)thio]-2H-pyran-2-one], the IC50 on HIV-I Protease (setting [1]) came out at 410 nM.
The same measure, in the same setting: to `O=c1oc(-c2ccc(O)cc2)cc(O)c1SCc1ccccc1` [Example 15, 4-Hydroxy-6-(4-hydroxyphenyl)-3-[(phenylmethyl)thio]-2H-pyran-2-one] belongs 690 nM; to `O=c1oc(-c2ccc(Oc3ccccc3)cc2)cc(O)c1SCCc1ccccc1` [Example 57, 4-Hydroxy-6-(4-phenoxyphenyl)-3-[(2-phenylethyl)thio]-2H-pyran-2-one], 1900 nM.
The same measure, in the same setting: to `CCOC(=O)COc1ccc(-c2cc(O)c(SCCc3ccccc3)c(=O)o2)cc1` [Example 60, 4-[4-Hydroxy-2-oxo-3-[(2-phenylethyl)thio]-2H-pyran-6-yl]phenoxy acetic acid ethyl eater] belongs 610 nM; to `COc1ccccc1COc1ccc(-c2cc(O)c(SCCc3ccccc3)c(=O)o2)cc1` [Example 54, 4-Hydroxy-6-[4-[(2-methoxyphenyl)methoxy]phenyl]-3-[(2-phenylethyl)thio]-2H-pyran-2-one], 450 nM.
As to `O=c1oc(-c2ccccc2)cc(O)c1SC/C=C/c1ccccc1` [Example 25, 4-Hydroxy-6-phenyl-3-[3-(phenyl-2-propenyl)thio]-2H-pyran-2-one, (E)-], the IC50 on HIV-I Protease (setting [1]) is 1900 nM.
As to `CC(C)CC(SC1CCCCC1)c1c(O)cc(-c2ccc3c(c2)OCCO3)oc1=O` (racemic) [Example 115, 3-[1-(Cyclohexylthio)-3-methylbutyl]-6-(2,3-dihydro-1,4-benzodioxin-6-yl)4-hydroxy-2H-pyran-2-one], the IC50 on HIV-I Protease (setting [1]) amounted to 200 nM.
On the same count and under the same terms, to `O=c1oc(-c2ccccc2)cc(O)c1SCc1ccccc1` [Example 8] belongs 1700 nM; to `CC(C)CC(SC1CCCC1)c1c(O)cc(-c2ccccc2)oc1=O` (racemic) [Example 96, 3-[1-(Cyclopentylthio)-3-methylbutyl]-4-hydroxy-6-phenyl-2H-pyran-2-one], 70 nM.
Still for that read-out and setting: to `COc1ccc(-c2cc(O)c(SCc3ccccc3)c(=O)o2)cc1C` [Example 46, 4-Hydroxy-6-(4-methoxy-3-methylphenyl)-3-[(phenylmethyl)thio]-2H-pyran-2-one] belongs 700 nM; to `O=c1oc(-c2ccc(OCc3ccccn3)cc2)cc(O)c1SCCc1ccccc1` [Example 59, 4-Hydroxy-3-[(2-phenylethyl)thio]-6-[4-(2-pyridinylmethoxy)phenyl]-2H-pyran-2-one], 770 nM; to `O=c1oc(-c2cccc(O)c2)cc(O)c1SCc1ccccc1` [Example 23, 4-Hydroxy-6-(3-hydroxyphenyl)-3-[(phenylmethyl)thio]-2H-pyran-2-one], 1200 nM.
Take `O=C(O)COc1ccc(-c2cc(O)c(SCCc3ccccc3)c(=O)o2)cc1` [Example 63, 4-[4-Hydroxy-2-oxo-3-[(2-phenylethyl)thio]-2H-pyran-6-yl]phenoxyacetic acid]: the IC50 on HIV-I Protease (setting [1]) is 140 nM.
On to `O=c1oc(-c2ccc3c(c2)OCO3)cc(O)c1SCc1ccccc1` [Example 50, 6-(1,3-Benzodioxol-5-yl)-4-hydroxy-3-[(phenylmethyl)thio]-2H-pyran-2-one], for which, on HIV-I Protease (setting [1]), the IC50 was 600 nM.
With `COc1cccc(-c2cc(O)c(SCc3ccccc3)c(=O)o2)c1` [Example 4, 4-Hydroxy-6-(3-methoxyphenyl)-3-[(phenylmethyl)thio]-2H-pyran-2-one], the IC50 on HIV-I Protease (setting [1]) was 900 nM.
For `O=c1oc(-c2cccc(OCCc3ccccc3)c2)cc(O)c1SCCc1ccccc1` [Example 30, 4-Hydroxy-6-[3-(2-phenylethoxy)phenyl]-3-[(2-phenyl-ethyl)thio]-2H-pyran-2-one], the IC50 at HIV-I Protease (setting [1]) is 1970 nM.
As to `Cc1cc(C)cc(-c2cc(O)c(Sc3ccccc3C(C)C)c(=O)o2)c1` [Example 154, 6-(3,5-Dimethylphenyl)-4-hydroxy-3-[(2-isopropylphenyl)-thio]-2H-pyran-2-one], the EC50 in the test on HIV-1iiib stood at 31000 nM.
With `O=c1oc(-c2ccccc2)cc(O)c1C(CC1CC1)SC1CCCC1` (racemic) [Example 149, 3-[1-[Cyclopentylthio]-2-cyclopropylethyl]-4-hydroxy-6-phenyl-2H-pyran-2-one], the IC50 at HIV-I Protease is 55 nM.
For the molecule `Cc1cccc(-c2cc(O)c(SCc3ccccc3)c(=O)o2)c1` [Example 42, 4-Hydroxy-6-(3-methylphenyl)-3-[(phenylmethyl)thio]-2H-pyran-2-one], the IC50 at HIV-I Protease (setting [1]) turned out to be 860 nM.
